Laboratory results reported in patent US10780101B2, “Amide derivatives of squalamine for the treatment of infections” (VIRBAC, priority 2016, dated 2020).
Values after ≈ are worked out from the molar mass of the structure shown. Where two headings read alike, the source gives them in different places.

Columns and labels:
[1] = test system: S. intermedius Animal (1051997); experiment: MIC determination, S. intermedius animal (1051997); type: cell-based; conditions: Staphylococcus intermedius; Gram-positive; Mueller-Hinton medium, 24 h at 37° C.
Procedure: (§1) A negative control (2 mL of sterile culture medium)
(§2) A positive control (1940 μL of culture medium+40 μL of DMSO+20 μL of the bacterial suspension) from a thawed biological strain (the biological strains are stored at −80° C. in glycerol).
(§3) The tubes were incubated at 37° C. for 24 hours at 100 rpm.
(§4) The microorganisms were handled under a type L2 laboratory fume cupboard and, before any handling, a UV cycle was programmed and only sterile material was used. […] The chemical compounds to be tested were prepared in a DMSO/methanol mixture (50/50) at a concentration of 5 mg/mL.
(§5) After 24 hours of incubation, a measurement of the optical density was taken using a spectrophotometer at 600 nm, collecting 100 μL of the bacterial suspension diluted in 900 μL of the sterile culture medium. This test required the use of a 96-well plate and the required volume of the microbial suspension to be seeded was calculated for an OD corresponding to a value equal to 0.01 in each well. In this plate, the first line corresponded to the negative control (195 μL of sterile culture medium in each well), the second line corresponded to the positive control (seeded culture medium supplemented with 2% of DMSO), and the third line was loaded twice with bacterial suspension; 8 μL of test product were placed in each well. Thereafter, a 0.5 cascade dilution was performed from this line.
(§6) The first column served as inhibition control. A sterile filter was then placed on the microplate, allowing the passage of gases but not of contaminants. The microplate was incubated at 37° C. under a humid atmosphere for 24 hours.
(§7) NB: The medium used is Mueller-Hinton (MH) medium for bacteria. All the tests were performed in duplicate.
(§8) After incubation, the filter was replaced with a transparent film, and an OD reading was then taken in an iEMS plate spectrophotometer at 620 nm. Calculation of the minimum inhibitory concentration (MIC) was performed.

[2] = test system: S. aureus Human ATCC 25923; experiment: MIC determination, S. aureus human ATCC 25923; type: cell-based; conditions: Staphylococcus aureus, ATCC25923; Gram-positive; Mueller-Hinton medium, 24 h at 37° C.
Procedure: as §1, §2, §3, §4, §5, §6, §7, §8

[3] = test system: E. faecalis Human ATCC 29212; experiment: MIC determination, E. faecalis human ATCC 29212; type: cell-based; conditions: Enterococcus faecalis, ATCC29212; Gram-positive; Mueller-Hinton medium, 24 h at 37° C.
Procedure: as §1, §2, §3, §4, §5, §6, §7, §8

E. coli Human ATCC 28922 = experiment: MIC determination, E. coli human ATCC 28922; type: cell-based; conditions: Escherichia coli, ATCC28922; Gram-negative; Mueller-Hinton medium, 24 h at 37° C.
Procedure: as §1, §2, §3, §4, §5, §6, §7, §8

[4] = test system: P. aeruginosa Animal (1051575); experiment: MIC determination, P. aeruginosa animal (1051575); type: cell-based; conditions: Pseudomonas aeruginosa; Gram-negative; Mueller-Hinton medium, 24 h at 37° C.
Procedure: as §1, §2, §3, §4, §5, §6, §7, §8

P. aeruginosa (1051575) = experiment: Potentiation of doxycycline activity (combination MIC); type: cell-based, Pseudomonas aeruginosa; conditions: in presence of doxycycline 2 μg/mL; 24 hours at 37° C.
S. aureus Animal (340) = experiment: MIC determination, S. aureus animal (340); type: cell-based; conditions: Staphylococcus aureus; Gram-positive; Mueller-Hinton medium, 24 h at 37° C.
Procedure: as §1, §2, §3, §4, §5, §6, §7, §8

CHO-K1 cells = experiment: WST1 cytotoxicity test on CHO-K1 cells; type: cell-based, Chinese hamster; conditions: Cricetulus griseus, read-out: IC50 (μg/mL) CHO
Procedure: Test WST1 was used to measure the cytotoxic activity of the products. This is a colorimetric test which makes it possible to measure the viability and the degree of cell proliferation. It is based on cleavage of the colorless tetrazolium salts WST-1 (4-[3-(4-iodophenyl)-2-(4-nitrophenyl)-2H-5-tetrazolio]-1,3-benzene disulfonate) with mitochondrial dehydrogenases to the yellow-colored formazan derivative, which may be quantified by spectrophotometry at 420-480 nm.
The WST1 test was performed on Chinese hamster ovary cells. The CHO-K1 cells (ATCC, USA) are kept in culture in McCoy's 5A medium supplemented with 10% fetal calf serum, 2 mM of L-glutamine and a mixture of penicillin-streptomycin (100 U/ml: 10 μg/ml). The culture is incubated at 37° C. under an atmosphere enriched in CO2 (5%), and subcultured every two days.
The cells are transferred into 96-well plates (25000 cells/mL) in whole McCoy's 5A medium, and maintained for 24 hours at 37° C. under a humid atmosphere enriched in CO2 (5%). Increasing concentrations of test products are added to the wells in double tests and 8 growth controls containing the cells in the medium alone are included in each series of tests. After 24 hours at 37° C. (5% CO2), the culture medium is removed, the cells are rinsed in phosphate buffer (PBS) and 50 μL of PBS containing 10% of reagent WST1 are added to each well. After 20 minutes of incubation at 37° C., the results are read by spectrophotometry at 450 nm.
The results are expressed in dose-response relationships, modeled by nonlinear regression analysis using the TableCurve software. The 50% inhibitory concentration (IC50) represents the concentration of product that is capable of reducing the cell viability by 50%.

[5] = test system: P. aeruginosa Human ATCC 27853; experiment: MIC determination, P. aeruginosa human ATCC 27853; type: cell-based; conditions: Pseudomonas aeruginosa, ATCC27853; Gram-negative; Mueller-Hinton medium, 24 h at 37° C.
Procedure: as §1, §2, §3, §4, §5, §6, §7, §8

E. coli Animal (1956) = experiment: MIC determination, E. coli animal (1956); type: cell-based; conditions: Escherichia coli; Gram-negative; Mueller-Hinton medium, 24 h at 37° C.
Procedure: as §1, §2, §3, §4, §5, §6, §7, §8

Row | SMILES | MIC [1] | MIC [2] | MIC [3] | MIC (E. coli Human ATCC 28922) | MIC [4] | MIC - P. aeruginosa (1051575): content of compound of formula (I) to restore the doxycycline activity (at 2 μg/mL) (P. aeruginosa (1051575)) | MIC (S. aureus Animal (340)) | IC50 (CHO-K1 cells; CHO-K1, 24 h) | MIC [5] | MIC (E. coli Animal (1956)) | IC50 (CHO-K1 cells; Table III, WST1 test, CHO-K1 cells, 24 hours)
1 | CC(C)NC(=O)CC[C@@H](C)[C@H]1CCC2C3C(CC[C@@]21C)[C@@]1(C)CC[C@H](NCCCNCCCNCCCN)CC1C[C@@H]3O (stereo partly drawn) [(14), 3β-norspermino-N-isopropylursodeoxycholamide] | 4 µg/mL (≈ 6.62 µM) | 16 µg/mL (≈ 26.5 µM) | 128 µg/mL (≈ 212 µM) | 128 µg/mL (≈ 212 µM) | 128 µg/mL (≈ 212 µM) | 1 µg/mL | 32 µg/mL (≈ 53 µM) | 90 µg/mL (≈ 149 µM) | 64 µg/mL (≈ 106 µM) | 128 µg/mL (≈ 212 µM) | 
2 | CC(C)NC(=O)CC[C@@H](C)[C@H]1CCC2C3C(CC[C@@]21C)[C@@]1(C)CC[C@H](NCCCN2CCN(CCCN)CC2)CC1C[C@@H]3O (stereo partly drawn) [(16), 3β-(1,4-bis(3-aminopropyl)piperazine)-N-isopropylursodeoxycholamide] | 15 µg/mL (≈ 24.4 µM) | 60 µg/mL (≈ 97.4 µM) | 120 µg/mL (≈ 195 µM) | 60 µg/mL (≈ 97.4 µM) | > 120 µg/mL |  | 60 µg/mL (≈ 97.4 µM) |  | > 120 µg/mL | 120 µg/mL (≈ 195 µM) | 
3 | CC(C)NC(=O)CC[C@@H](C)[C@H]1CCC2C3CCC4C[C@@H](NCCCNCCCNCCCN)CC[C@]4(C)C3CC[C@@]21C (stereo partly drawn) [(17), 3β-norspermino-N-isopropyllithocholamide] | 4 µg/mL (≈ 6.8 µM) | 8 µg/mL (≈ 13.6 µM) | 8 µg/mL (≈ 13.6 µM) | 16 µg/mL (≈ 27.2 µM) | 32 µg/mL (≈ 54.4 µM) | 2 µg/mL | 8 µg/mL (≈ 13.6 µM) | 17 µg/mL (≈ 28.9 µM) | 64 µg/mL (≈ 109 µM) | 32 µg/mL (≈ 54.4 µM) | 
4 | CC(C)NC(=O)CC[C@@H](C)[C@H]1CCC2C3CCC4C[C@@H](NCCCNCCCN)CC[C@]4(C)C3CC[C@@]21C (stereo partly drawn) [(18), 3β-norspermidino-N-isopropyllithocholamide] | 0.8 µg/mL (≈ 1.51 µM) | 6 µg/mL (≈ 11.3 µM) | 12 µg/mL (≈ 22.6 µM) | 26 µg/mL (≈ 49 µM) | 26 µg/mL (≈ 49 µM) | 0.8 µg/mL | 3 µg/mL (≈ 5.65 µM) | 20 µg/mL (≈ 37.7 µM) | 104 µg/mL (≈ 196 µM) | 3 µg/mL (≈ 5.65 µM) | 
5 | CC(C)NC(=O)CC[C@@H](C)[C@H]1CCC2C3C(CC[C@@]21C)[C@@]1(C)CC[C@H](NCCNCCNCCNCCNCCN)CC1C[C@@H]3O (stereo partly drawn) [(23), 3β-(pentaethylenehexamine)-N-isopropylursodeoxycholamide] | 16 µg/mL (≈ 24.7 µM) | 32 µg/mL (≈ 49.4 µM) | 64 µg/mL (≈ 98.8 µM) | 128 µg/mL (≈ 198 µM) | 128 µg/mL (≈ 198 µM) |  | 32 µg/mL (≈ 49.4 µM) |  | 128 µg/mL (≈ 198 µM) | 128 µg/mL (≈ 198 µM) | 115 µg/mL (≈ 177 µM)
6 | CCN(CC)C(=O)CC[C@@H](C)[C@H]1CCC2C3C(CC[C@@]21C)[C@@]1(C)CC[C@H](NCCCNCCCNCCCN)CC1C[C@H]3O (stereo partly drawn) [(39), 3β-norspermino-N,N-diethylchenodeoxycholamide] | 1 µg/mL (≈ 1.62 µM) | 2 µg/mL (≈ 3.24 µM) |  | 120 µg/mL (≈ 194 µM) | 8 µg/mL (≈ 12.9 µM) | 2 µg/mL | 1 µg/mL (≈ 1.62 µM) |  | 15 µg/mL (≈ 24.3 µM) | 4 µg/mL (≈ 6.47 µM) | 
